Entries after “also recorded” stand apart in the source; their conditions may differ. Non-standard residues stand in square brackets, D forms with d. No end group written: not given here. pT = C[C@@H](OP(=O)(O)O)[C@H](N)C(=O)O
B1: Phosphorylated Emi2 169-177 peptide (phospho-Thr176) (peptide)
peptide: FSQHKTS[pT]I-NH2
notes: Made on Rink amide resin, so probably a C-terminal amide (surmised); source: synthetic peptide (Fmoc SPPS, Rink amide resin, RP-HPLC)
B2: Phosphorylated Emi2 146-177 peptide (phospho-Thr152 and phospho-Thr176) (peptide, UniProt Q8CDI2 146-177, looked up)
peptide: SPLVTS[pT]IKTEDVVSNSQNSRLHFSQHKTS[pT]I
notes: as for B1

Key:
[1] = system: Emi2^1–300-mCherry reporter in MII oocytes; experiment: Emi2^1–300-mCherry degradation after parthenogenetic activation (time-lapse microscopy); type: cell-based, mouse; details: SrCl2 treatment in the presence of 100 nM BI2536; n = 3 oocytes
Excerpt: pRN3-Emi2^1−300-mCherry plasmids containing the Plk1 recognition site and a degron for a SCF family ubiquitin ligase were constructed from synthetic Emi2^1–300 gene fragments and subcloned into the pRN3 vector as an mCherry fusion by means of Gibson Assembly[50]. The plasmids were linearized by digestion with SfiI; then cRNA was synthesized with T3 mMessage mMachine (Life Technologies). In vitro transcripts were purified by phenol-chloroform extraction and isopropyl alcohol precipitation and stored at −80 °C until use.
GV stage oocytes were injected with various peptidomimetics at 300 μM in a 50% aqueous solution (w/v) of dimethyl sulfoxide. Peptidomimetics were injected into oocyte by means of a Eppendorf Femto Jet (Eppendorf AG, Hamburg, Germany) and a Nikon Diaphot ECLIPSE TE300 inverted microscope (Nikon UK Ltd., Kingston upon Thames, Surrey, UK) equipped with a Narishige MM0-202N hydraulic three-dimensional micromanipulator (Narishige Inc., Sea Cliff, NY, USA) and subjected to in vitro maturation as described above. As a control, the BG34 reagent with threonine residues instead of phosphothreonine[35] was injected into oocytes at 300 μM. To test the oocytes for parthenogenetic activation, we collected mature MII oocytes and injected them with various reagents as described above for GV oocytes. […]

bromodomain BRD4 = details: cited from earlier work
Excerpt: On the other hand, due to the high degree of similarity among kinase domains’ ATP-binding pockets, achieving good specificity is a difficult task. […] Because PBD exists only in the Plk family (Plk1 through Plk4), targeting of this site can result in high specificity along with enhanced binding affinity; these properties may faci ...

mouse oocyte maturation = details: cited from earlier work
Excerpt: In Xenopus and in mice, the general scheme of calcium-mediated signal transduction has been well established, but the detailed molecular mechanism has been elusive. For instance, Plk1 is involved in Emi2 phosphorylation and destabilization, but the mechanism of binding of Plk1 to Emi2 has not yet been determined. Plk1 is known to be involved in various cell cycle-related processes, and recently it received attention as a target of anticancer treatments.

[2] = molecular target: T1, Mouse Plk1 Polo box domain (Plk1-PBD, amino acid residues 367-603) (mouse, UniProt Q07832 367-603); experiment: ITC; phosphorylated peptide (1.2 mM) injected into Plk1-PBD (0.1 mM) in the cell; 15 °C; 20 mM Tris-Cl pH 8.0, 300 mM NaCl, 3 mM DTT; one-site binding model; details: both partners purified
T1 construct: Polo-like kinase 1 (Plk1), mouse, polo box domain, residues 367-603; TEV site ENLYFQ/S between the His6 tag and the PBD; cleavage between Q and S should leave a Ser before residue 367 (surmised); also called polo box domain of Polo-like kinase 1; source: E. coli BL21 (DE3), purified (Ni-NTA, TEV digestion, Superdex 75 gel filtration); not shown: His6, N-terminal, cleaved
T1 sequence (Q07832 367-603): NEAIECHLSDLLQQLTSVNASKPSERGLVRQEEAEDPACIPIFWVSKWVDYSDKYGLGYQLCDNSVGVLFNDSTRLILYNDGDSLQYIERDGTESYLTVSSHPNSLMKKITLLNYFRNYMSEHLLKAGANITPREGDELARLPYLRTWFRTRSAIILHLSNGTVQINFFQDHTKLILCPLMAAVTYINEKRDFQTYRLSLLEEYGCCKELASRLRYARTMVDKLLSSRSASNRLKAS

| Molecule | decrease of Emi2-mCherry fluorescence after parthenogenetic activation (in words) [1] | binding and inhibition of BRD4 (in words) (bromodomain BRD4) | mouse oocyte maturation (in words) (mouse oocyte maturation) | Kd [2] | stoichiometry N [2] |
| --- | --- | --- | --- | --- | --- |
| CC[C@@H]1C(=O)N(C)c2cnc(Nc3ccc(C(=O)NC4CCN(C)CC4)cc3OC)nc2N1C1CCCC1 [BI2536] | did not cause any reduction in fluorescence even after 100 min; also recorded: blocks Emi2 degradation after parthenogenetic activation by SrCl2 | bind and inhibit bromodomain BRD4 at nanomolar concentration | impairs mouse oocyte maturation | – | – |
| B1 | – | – | – | 29.6 µM | 0.92 ratio of Emi2^169–177 to Plk1-PBD |
| B2 | – | – | – | – | 0.47 ratio of Emi2^146–177 to Plk1-PBD |

Source: PMC4602232, “Structural basis for recognition of Emi2 by Polo-like kinase 1 and development of peptidomimetics blocking oocyte maturation and fertilization” (Scientific Reports, 2015)
